Measurements: publication PMC7876056, “Population Pharmacokinetic Analysis of Yimitasvir in Chinese Healthy Volunteers and Patients With Chronic Hepatitis C Virus Infection” (Frontiers in Pharmacology, 2021)

Legend:
[1] = cited from earlier work
CYP 1A2 = settings: cited from earlier work
human plasma proteins = settings: independent of drug concentration over 100–2000 ng ml^−1; cited from earlier work
[2] = tested on: cytochrome P450 (CYP) 2C8; settings: cited from earlier work
CYP 3A4 = settings: cited from earlier work
CYP 2C19 = settings: cited from earlier work
[3] = Phase 1b study in patients with chronic HCV genotype 1 infection; format: in vivo, human; settings: evening after dinner for more than 4 h
Description: Yimitasvir is a novel, oral HCV non-structural protein 5A (NS5A) inhibitor for the treatment of chronic HCV genotype 1 infection in combination with sofosbuvir. The pharmacokinetic profile of yimitasvir has been evaluated in healthy volunteers and patients with chronic HCV infection ([Zhang et al., 2018]; [Zhao et al., 2019]). Following fasted single oral dose of yimitasvir in healthy volunteers, yimitasvir was absorbed with a peak concentration (Cmax) 3.5–4.0 h post-dose. […] Yimitasvir was approximately 79.2–86.6% bound to human plasma proteins and the binding was independent of drug concentration over the range of 100–2000 ng ml^−1. No metabolism of yimitasvir was detected in vitro during incubations with hepatic microsomes from mice, rats, dogs, monkeys and humans. […] Steady state was achieved by day 5 following the once daily dosing regimen. […] Yimitasvir is a substrate and inhibitor of the drug transporter P-glycoprotein (P-gp).
The current population PK analysis of yimitasvir was performed using rich and sparse PK samples collected from six clinical pharmacology trials [4 phase 1 ([Zhao et al., 2019]), 1 phase 1b ([Zhang et al., 2018]) and 1 phase 2 studies] in Chinese healthy volunteers and HCV-infected patients. […]

CYP 2C9 = settings: cited from earlier work
CYP 2B6 = settings: cited from earlier work
[4] = rats; cited from earlier work
[5] = high-fat meal, food effect study, ref Zhao et al., 2019

- AUC decrease compared to phase 1 SAD trial [3]: 40%
Structure (SMILES): COC(=O)NC(C(=O)N1CCCC1c1ncc(-c2ccc(-c3ccc(-c4ccc5nc(C6CCCN6C(=O)C(NC(=O)OC)C(C)C)[nH]c5c4)c4c3C3CCC4C3)cc2)[nH]1)C(C)C (stereo not shown) [yimitasvir]
- Decrease in AUC [1, 5]: ~50%
- Decrease in Cmax [1, 5]: ~63%
- Tmax ([1]; high-fat meal, ref Zhao et al., 2019): 5 to 12 h
- Terminal half-life (t1/2) ([1]; human, in vivo): 13.4 to 19.7 h
- Dose proportionality of exposure ([1]; multiple ascending dose study, 100–400 mg once daily for seven days): less than dose-proportional
- Steady state achieved ([1]; once daily dosing regimen): ≤ 5 days
- Accumulation ratio ([1]; once daily dosing): 1.32–1.34
- Major route of elimination ([1]; ref Zhao et al., 2019): fecal excretion of parent drug
- Dose proportionality of AUC and Cmax ([1]; single ascending dose study, healthy volunteers, ref Zhao et al., 2019): increased less than proportionally
- Recovered in urine as the parent drug ([1]; through 7 days post-dose, ref Zhao et al., 2019): Less than 0.04%
- Inhibition of CYP1A2 (CYP 1A2): does not inhibit
- Bound to human plasma proteins (human plasma proteins): 79.2–86.6%
- Inhibition of CYP2C8 [2]: weak inhibitor
- Inhibition of CYP3A4 (CYP 3A4): does not inhibit
- Inhibition of CYP2C19 (CYP 2C19): does not inhibit
- Inhibition of CYP2C9 (CYP 2C9): does not inhibit
- Inhibition of CYP2B6 (CYP 2B6): does not inhibit
- Metabolism in hepatic microsomes [4]: No metabolism
